Measurements from paper PMC9654333, “AmyP53, a Therapeutic Peptide Candidate for the Treatment of Alzheimer’s and Parkinson’s Disease: Safety, Stability, Pharmacokinetics Parameters and Nose-to Brain Delivery” (International Journal of Molecular Sciences, 2022).
Values joined by “and” are separate entries in the source; they are usually repeats but may differ in a detail not shown here. Equal entries are not always repeated. “Also recorded” adds a separate entry of the source. Where two headings read alike, the source gives them in different places. Ends that are not written are not given here.

Key:
[1] = test system: bEnd.3 murine endothelial cells (bEnd.3/C6 co-cultures); test: Transport through in vitro reconstituted blood–brain barrier (two-compartment chamber); assay type: in vitro ADME, mouse; settings: for Transendothelial transport through the blood–brain barrier: bEnd.3/C6 model, donor basal to acceptor apical compartment
Experimental: An in vitro model of the blood–brain barrier was reconstituted with bEnd.3 murine endothelial cells obtained from the American Type Culture Collection (ATCC, Manassas, VA, USA) ref. bEnd.3 [BEND3] (ATCC CRL-2299). These cells were cultured in chambers with two compartments separated by a filter with a porosity of 0.4 µm (Corning-Transwell, Dominique Dutscher, Bernolsheim, France). The cells were seeded at a density of 50,000 cells per individual filter and cultured in a growth medium containing 10% fetal calf serum. After an initial spreading step, the bEnd.3 cells colonized the entire surface available on the filter, thus reconstituting a functional endothelium. At this stage, the cells established tight junctions preventing the passage of molecules and ions. In order to improve the differentiation of bEnd.3 cells, we also set up two coculture systems: [bEnd.3 + astrocytes (CTX cells)] and [bEnd.3 + glioma (C6 cells)]. In these cases, the glial cells were seeded in the basal compartment (non-contact model) and co-cultured for 6 days before using bEnd.3 cell monolayers for transport experiments. The impermeability of each of these cellular barriers was assessed by transendothelial resistance measurements with a Voltmeter-Ohmmeter Millicell-ERS (Merck-Millipore, Burlington, MA, USA). […] All experiments were performed 6 times.

[2] = design: method as in PMID 22963731, PMID 23444784, PMID 33551991, PMID 17720549, PMID 15728733; settings: therapeutic peptides delivered to the brain via the intranasal route; cited from earlier work
[3] = Chemical stability of aqueous solution upon storage (LC–MS); assay type: physicochemical; settings: 1 mM in pure water, stored 18 months at 4 °C, 20 °C and 45 °C
Experimental: AmyP53 samples (1 mM in water) were stored at 4 °C, 20 °C, and 45 °C in sealed Eppendorf tubes and analyzed at different time points for chemical integrity (LC-MS method) and biological activity (binding to ganglioside GM1). For calibration, different dilutions of the standard solution were injected three times, and the peak area was measured for all three. […] The percentage of recovery was >98%, in full agreement with the certificate analysis of AmyP53 batch # #P190628-LL735654. LC–MS linearity was observed over the 5–100 pmol injected range (R^2 > 0.99). The minimal amount detected was 5 pmol.

[4] = In vitro stability in rat whole blood (LC–MS); assay type: in vitro ADME
Experimental: (§1) Supernatants were stored at −20 °C before analysis.
(§2) AmyP53 in water solution (300 µM) was mixed with rat blood (obtained from Syncrosome, Marseille, France), or commercial human serum (Sigma-Aldrich, St. Louis, MO, USA). AmyP53 concentrations were then determined by LC–MS at the indicated times after extraction, as detailed above.

[5] = In vitro stability in commercial human serum (LC–MS); assay type: in vitro ADME
Experimental: as §1, §2

[6] = rat, in vivo
Text: (§3) Male and female Sprague Dawley rats, 6 weeks old at receipt, weighing around 300 g at the beginning of the experiments were used for pharmacokinetics studies. The animals that were included in these experiments were naïve to the previous administration of drugs. The acclimatization of rats lasted at least 5 days. Animals had free access to food (RM1, SDS Dietex) and drinking water ad libitum. […] The protocol used by Syncrosome was approved by an Animal Ethical Committee (French National Committee N°71) and by the Higher Education and Research Ministry (#2015070314429284_v2). […] Every effort was done to minimize animal suffering and to reduce the number of animals used in the experiments in compliance with the ARRIVE guidelines.
(§4) One compound formulation at one dose for each route of administration was tested during the present study. The data were treated with the PKsolver add-in of Excel [125].
(§5) Anesthetized (ketamine/medetomidine or isoflurane 4% for induction and then 2.5%) rats were treated intravenously once. The final volume of administration was 0.5 mL/kg (100 mg/kg body weight). As soon as the administration was performed (t0), a timer was started.
(§6) A catheter was introduced into each nostril of the rat with a depth of 7 mm [126]. Anesthetized (ketamine/medetomidine or isoflurane 4% for induction and then 2.5%) rats were treated once. The volume of administration was 10 μL/nostril (20 μL per rat, 12 mg/kg body weight). As soon as the administration was performed (t0), a timer was started.
(§7) Blood samples of 2 mL were collected through direct intracardiac puncture and separated on two K3-EDTA Greiner Bio-One tubes of 1 mL (ref. 454034A, Dominique Dutscher, Bernolsheim, France). A 100× solution of protease inhibitors (ref. 1862209, ThermoScientific, Waltham, MA, USA) was added immediately after sampling (10 μL/tube). The first tube of the blood sample was then separated in 2 samples with different procedures (with and without sonication) and the other one was used for plasma preparation.
(§8) Brains were collected immediately after blood collection, split in 2 hemispheres, and then transferred into Eppendorf tubes. Brain samples were placed into crushed dry ice for several minutes and frozen at −80 °C. When indicated, the rats were transcardially perfused with a solution of phosphate-buffered saline (PBS) for 10 min with a flow rate of 40 mL/min to remove blood in the brain tissue. A subcutaneous administration of buprenorphine (0.03 mg/kg) was performed at least 30 min prior to transcardial perfusion.
(§9) For blood and serum stability and for pharmacokinetics studies, blood and plasma samples (200 µL) were incubated with 3 volumes of methanol for 30 min at 4 °C and then centrifuged at 4 °C for 5 min (16,000× g). Supernatants were stored at −20 °C before analysis. Brain homogenates were prepared at 4 °C in PBS containing 1 mM EDTA and protease inhibitors (ref. 1862209, ThermoScientific, Waltham, MA, USA) in a glass Potter homogenizer. Homogenate samples (600 µL) were incubated with 3 volumes of methanol for 30 min at 4 °C and centrifuged at 4 °C for 5 min (16,000× g). Supernatants were evaporated under nitrogen flux and then diluted in 100 µL of 0.1% formic acid in water.
(§10) The concentrations of intact AmyP53 in biological samples were determined by liquid chromatography–mass spectrometry (Acquity iClass-Vion LC-MS; Waters, Guyancourt, France).

in vivo = settings: both, Sprague Dawley, rat, 12 mg/kg
Text: as §3, §4, §5, §6, §7, §8, §9, §10

[7] = cited from earlier work
[8] = Toxicology study, repeated intranasal administration over 7 days; settings: for Behavior (Days 1–7) / Brain Histology / Inflammation at Nostrils / Body Weight (Day 7): rat; for Body Weight (Day 7): mean ± SEM, in g (unit assumed)
Experimental: Male and female Wistar rats (4 animals per group) were treated with the indicated dose of AmyP53, and toxicology studies were conducted as previously described [75]. Statistical analysis was performed with the Kruskal–Wallis test.

[9] = Pharmacokinetics in rat blood and brain after intranasal or intravenous administration
Text: as §3, §4, §5, §6, §7, §8, §9, §10

RGGRLAYLRRRWAVLGR [synB5, reference compound]
Transendothelial transport through the blood–brain barrier [1]: efficiently crossed the blood–brain barrier

RRLSYSRRRF [synB3, reference compound]
Transendothelial transport through the blood–brain barrier [1]: efficiently crossed the blood–brain barrier

EPO: therapeutic peptide delivered to the brain via the intranasal route, 165 aa
pHi [2]: 8.7

TGF-β: therapeutic peptide delivered to the brain via the intranasal route, 112 aa
pHi [2]: 8.6

NGF: therapeutic peptide delivered to the brain via the intranasal route, 120 aa
pHi [2]: 9.0

Vasopressin [reference compound]
pHi [2]: 8.0

KEGVLYVGHHTK [AmyP53]
Chemical stability in water solution [3]: remains chemically intact over 18 months; also recorded: remained remarkably stable under all these conditions | half-life at 300 µM ([4]; rat fresh whole blood, read-out: Half-life time): 17 min | Detection after incubation ([4]; rat whole blood, 300 µM, 60 min): still detected after 60 min | half-life at 300 µM ([5]; commercial human serum, read-out: Half-life time): 5 min | Detection after incubation ([5]; human serum, 300 µM, 30 min): no longer detected in serum after 30 min | Transendothelial transport through the blood–brain barrier [1]: almost as effective as synB3 and more than synB5; also recorded: at least as efficiently as syn B3 and even more than syn B5 | Transendothelial resistance during incubation ([1]; reconstituted blood–brain barrier, incubation with AmyP53): remained unchanged | Tmax ([6]; both, Sprague Dawley, 12 mg/kg): 5 min | AmyP53 reaching the brain [6]: 1.57% | Efficiency of nose-to-brain delivery versus blood circulation [6]: 7.85 fold | Tmax (in vivo): 10 min | solubility (physchem): > 146000 µM and > 200000 µg/mL | Inflammatory reaction in the nostrils and the tails ([7]; AmyP53-treated rats): no inflammatory reaction could be observed | Tolerance ([7]; rats, administered intravenously or intranasally): perfect tolerance | Undesirable effects ([7]; rats, intranasal administration, doses up to 5 mg/kg body weight): no undesirable effect could be detected | Undesirable effects ([7]; rats, intravenous administration, doses up to 80 mg/kg): no undesirable effect could be detected | Toxicology findings after repeated intranasal injections ([8]; male and female Wistar rats, doses up to 5 mg/kg body weight, 7-day period): no mortality, no behavioral changes, no body weight loss, and no alterations of brain tissue at autopsy | Behavior (Days 1–7) ([8]; female, intranasal 0.2 mg/kg): NTR NTR | Brain Histology ([8]; female, intranasal 0.2 mg/kg): NTR NTR | Inflammation at Nostrils ([8]; female, intranasal 0.2 mg/kg every two days during 7 days): No No | Body Weight (Day 7) ([8]; female, intranasal 0.2 mg/kg): 189.46 ± 15.15 | Behavior (Days 1–7) ([8]; female, intranasal 1.0 mg/kg): NTR NTR | Brain Histology ([8]; female, intranasal 1.0 mg/kg): NTR NTR | Inflammation at Nostrils ([8]; female, intranasal 1.0 mg/kg every two days during 7 days): No No | Body Weight (Day 7) ([8]; female, intranasal 1.0 mg/kg): 191.03 ± 3.13 | Behavior (Days 1–7) ([8]; female, intranasal 5.0 mg/kg): NTR NTR | Brain Histology ([8]; female, intranasal 5.0 mg/kg): NTR NTR | Inflammation at Nostrils ([8]; female, intranasal 5.0 mg/kg every two days during 7 days): No No | Body Weight (Day 7) ([8]; female, intranasal 5.0 mg/kg): 185.70 ± 5.77 | Behavior (Days 1–7) ([8]; male, intranasal 0.2 mg/kg): NTR NTR | Brain Histology ([8]; male, intranasal 0.2 mg/kg): NTR NTR | Inflammation at Nostrils ([8]; male, intranasal 0.2 mg/kg every two days during 7 days): No No | Body Weight (Day 7) ([8]; male, intranasal 0.2 mg/kg): 248.94 ± 8.51 | Behavior (Days 1–7) ([8]; male, intranasal 1.0 mg/kg): NTR NTR | Brain Histology ([8]; male, intranasal 1.0 mg/kg): NTR NTR | Inflammation at Nostrils ([8]; male, intranasal 1.0 mg/kg every two days during 7 days): No No | Body Weight (Day 7) ([8]; male, intranasal 1.0 mg/kg): 252.26 ± 5.77 | Behavior (Days 1–7) ([8]; male, intranasal 5.0 mg/kg): NTR NTR | Brain Histology ([8]; male, intranasal 5.0 mg/kg): NTR NTR | Inflammation at Nostrils ([8]; male, intranasal 5.0 mg/kg every two days during 7 days): No No | Body Weight (Day 7) ([8]; male, intranasal 5.0 mg/kg): 250.90 ± 5.68 | Ratio of AUCIN/AUCiv ([9]; blood): 123% | Ratio of AUCIN/AUCiv ([9]; brain): 94%

VIP: therapeutic peptide delivered to the brain via the intranasal route, 28 aa [reference compound]
pHi [2]: 9.8
